Source: ChEMBL document CHEMBL3217535, “Synthesis and biological activity of furanylindazoles as inhibitors of hypoxia inducible factor (HIF)-1 transcriptional activity” (Medchemcomm, 2012)
Activity calls are given as the source filed them. The calls are words filed in the database; no cut-off is given here.

Assays:
[1] = Inhibition of HIF-1 (unknown origin) expressed in human HeLa cells after 12 hrs by HRE luciferase reporter gene assay; format: cell-based
[2] = Drug uptake in nucleus of human RXF631L cells azide-Alexa 488-based fluorescent microscopy; format: ADME
[3] = Drug uptake in nucleus of human NCI-H226 cells azide-Alexa 488-based fluorescent microscopy; format: ADME, cell-based
[4] = Drug uptake in cytoplasm of human NCI-H226 cells azide-Alexa 488-based fluorescent microscopy; format: ADME, cell-based
[5] = Drug uptake in cytoplasm of human RXF631L cells azide-Alexa 488-based fluorescent microscopy; format: ADME
[6] = Drug uptake in granular vesicle of human RXF631L cells azide-Alexa 488-based fluorescent microscopy; format: ADME
[7] = Drug uptake in granular vesicle of human MKN1 cells azide-Alexa 488-based fluorescent microscopy; format: ADME, cell-based; settings: mkn-1
[8] = Drug uptake in granular vesicle of human NCI-H226 cells azide-Alexa 488-based fluorescent microscopy; format: ADME, cell-based
[9] = tested on: Mus musculus; assay: In vivo inhibition of HIF1 transcriptional activity in nude mouse xenografted with human SUIT2/HRE-luc cells at 10 mg/kg, ip measured after 24 hrs by bioluminescence assay; format: functional, organism-based; parameters: dose 10 mg/kg
[10] = tested on: NCI-H226; assay: Growth inhibition of human NCI-H226 cells by SRB assay; format: functional
[11] = Growth inhibition of human RXF631L cells by SRB assay; format: functional; settings: for GI50: RXF 631
[12] = tested on: Mus musculus; assay: In vivo inhibition of HIF1 transcriptional activity in nude mouse xenografted with human SUIT2/HRE-luc cells at 10 mg/kg, ip measured after 12 hrs by bioluminescence assay; format: functional, organism-based; parameters: dose 10 mg/kg
[13] = Growth inhibition of human HBC4 cells by SRB assay; format: functional; settings: HBC4, read-out: pGI50 (converted)
[14] = Growth inhibition of human BSY1 cells by SRB assay; format: functional; settings: BSY-1
[15] = Growth inhibition of human HBC5 cells by SRB assay; format: functional
[16] = tested on: MCF7; assay: Growth inhibition of human MCF7 cells by SRB assay; format: functional
[17] = tested on: MDA-MB-231; assay: Growth inhibition of human MDA-MB-231 cells by SRB assay; format: functional
[18] = tested on: U-251; assay: Growth inhibition of human U251 cells by SRB assay; format: functional
[19] = tested on: SF-268; assay: Growth inhibition of human SF268 cells by SRB assay; format: functional; settings: SF-268, read-out: pGI50 (converted)
[20] = Growth inhibition of human SF295 cells by SRB assay; format: functional; settings: SF-295
[21] = Growth inhibition of human SF539 cells by SRB assay; format: functional; settings: SF-539, read-out: pGI50 (converted)
[22] = tested on: SNB-75; assay: Growth inhibition of human SNB75 cells by SRB assay; format: functional; settings: SNB-75, read-out: pGI50 (converted)
[23] = Growth inhibition of human SNB78 cells by SRB assay; format: functional; settings: SNB-78, read-out: pGI50 (converted)
[24] = Growth inhibition of human HCC2998 cells by SRB assay; format: functional; settings: HCC 2998, read-out: pGI50 (converted)
[25] = tested on: KM12; assay: Growth inhibition of human KM12 cells by SRB assay; format: functional
[26] = tested on: HT-29; assay: Growth inhibition of human HT-29 cells by SRB assay; format: functional; settings: HT-29, read-out: pGI50 (converted)
[27] = Growth inhibition of human HCT15 cells by SRB assay; format: functional; settings: HCT-15
[28] = tested on: HCT-116; assay: Growth inhibition of human HCT116 cells by SRB assay; format: functional
[29] = tested on: NCI-H23; assay: Growth inhibition of human NCI-H23 cells by SRB assay; format: functional; settings: NCI-H23, read-out: pGI50 (converted)
[30] = tested on: NCI-H522; assay: Growth inhibition of human NCI-H522 cells by SRB assay; format: functional
[31] = tested on: NCI-H460; assay: Growth inhibition of human NCI-H460 cells by SRB assay; format: functional
[32] = tested on: A549; assay: Growth inhibition of human A549 cells by SRB assay; format: functional
[33] = Growth inhibition of human DMS273 cells by SRB assay; format: functional; settings: DMS-273
[34] = Growth inhibition of human DMS114 cells by SRB assay; format: functional; settings: DMS-114
[35] = Growth inhibition of human LOXIMVI cells by SRB assay; format: functional; settings: LOX IMVI
[36] = Growth inhibition of human OVCAR3 cells by SRB assay; format: functional; settings: OVCAR-3
[37] = Growth inhibition of human OVCAR4 cells by SRB assay; format: functional; settings: OVCAR-4, read-out: pGI50 (converted)
[38] = Growth inhibition of human OVCAR5 cells by SRB assay; format: functional; settings: OVCAR-5
[39] = Growth inhibition of human OVCAR8 cells by SRB assay; format: functional; settings: OVCAR-8
[40] = tested on: SK-OV-3; assay: Growth inhibition of human SKOV3 cells by SRB assay; format: functional
[41] = tested on: ACHN; assay: Growth inhibition of human ACHN cells by SRB assay; format: functional
[42] = tested on: St-4; assay: Growth inhibition of human St-4 cells by SRB assay; format: functional; settings: St-4, read-out: pGI50 (converted)
[43] = Growth inhibition of human MKN1 cells by SRB assay; format: functional; settings: MKN-1, read-out: pGI50 (converted)
[44] = Growth inhibition of human MKN7 cells by SRB assay; format: functional; settings: MKN-7
[45] = Growth inhibition of human MKN28 cells by SRB assay; format: functional; settings: MKN-28
[46] = Growth inhibition of human MKN45 cells by SRB assay; format: functional; settings: MKN-45
[47] = Growth inhibition of human MKN74 cells by SRB assay; format: functional; settings: MKN-74, read-out: pGI50 (converted)
[48] = tested on: DU-145; assay: Growth inhibition of human DU145 cells by SRB assay; format: functional; settings: DU-145, read-out: pGI50 (converted)
[49] = tested on: PC-3; assay: Growth inhibition of human PC3 cells by SRB assay; format: functional

C#CCNc1ccc(Cn2nc(-c3ccc(CO)o3)c3ccccc32)cc1
IC50 [1]: 0.61 µM
Drug uptake [2]: Active
Drug uptake [3]: Active
Drug uptake [4]: Active
Drug uptake [5]: Active
Drug uptake [6]: Active
Drug uptake [7]: Active
Drug uptake [8]: Not Active

OCc1ccc(-c2nn(Cc3ccccc3)c3ccccc23)o1
IC50 [1]: 2 µM
inhibition [9]: inactive
GI50 [10]: 0.224 µM
CC50 ([10]; read-out: pLC50 (the source's name) (converted)): 9.77 µM
TGI ([10]; read-out: pTGI (converted)): 0.661 µM
GI50 [11]: 0.158 µM
TGI ([11]; RXF 631, read-out: pTGI (converted)): 0.525 µM

OCc1ccc(-c2nn(Cc3c(F)cccc3F)c3ccccc23)o1
IC50 [1]: 0.1 µM
inhibition [12]: Active
inhibition [9]: inactive
GI50 [13]: > 100 µM
GI50 [14]: 29.5 µM
GI50 [15]: 30.2 µM
GI50 [16]: 38 µM
GI50 [17]: 25.1 µM
GI50 [18]: 95.5 µM
GI50 [19]: > 100 µM
GI50 [20]: 49 µM
GI50 [21]: > 100 µM
GI50 [22]: > 100 µM
GI50 [23]: > 100 µM
GI50 [24]: > 100 µM
GI50 [25]: 79.4 µM
GI50 [26]: > 100 µM
GI50 [27]: 41.7 µM
GI50 [28]: 58.9 µM
GI50 [29]: > 100 µM
GI50 [10]: 0.0513 µM
GI50 [30]: 17.8 µM
GI50 [31]: 41.7 µM
GI50 [32]: 66.1 µM
GI50 [33]: 50.1 µM
GI50 [34]: 41.7 µM
GI50 [35]: 24.5 µM
GI50 [36]: 75.9 µM
GI50 [37]: > 100 µM
GI50 [38]: 72.4 µM
GI50 [39]: 77.6 µM
GI50 [40]: 53.7 µM
GI50 [11]: 0.0447 µM
GI50 [41]: 74.1 µM
GI50 [42]: > 100 µM
GI50 [43]: > 100 µM
GI50 [44]: 36.3 µM
GI50 [45]: 51.3 µM
GI50 [46]: 24 µM
GI50 [47]: > 100 µM
GI50 [48]: > 100 µM
GI50 [49]: 43.7 µM

[N-]=[N+]=Nc1ccc(Cn2nc(-c3ccc(CO)o3)c3ccccc32)cc1
IC50 [1]: 1.24 µM

OCc1ccc(-c2nn(Cc3cccc(F)c3)c3ccccc23)o1
IC50 [1]: 0.48 µM

OCc1ccc(-c2nn(Cc3ccc(F)cc3)c3ccccc23)o1
IC50 [1]: 0.53 µM

OCc1ccc(-c2nn(Cc3c(F)c(F)cc(F)c3F)c3ccccc23)o1
IC50 [1]: 0.07 µM
inhibition [9]: inactive

N#Cc1ccc(Cn2nc(-c3ccc(CO)o3)c3ccccc32)cc1
IC50 [1]: 0.27 µM

OCc1ccc(-c2nn(Cc3ccc(F)cc3F)c3ccccc23)o1
IC50 [1]: 0.31 µM

OCc1ccc(-c2nn(Cc3ccc(-c4ccccc4)cc3)c3ccccc23)o1
IC50 [1]: 3.3 µM

OCc1ccc(-c2nn(Cc3cccnc3)c3ccccc23)o1
IC50 [1]: 0.46 µM

O=Cc1ccc(-c2nn(Cc3ccccc3)c3ccccc23)o1
IC50 [1]: 9 µM

C#CC(O)c1ccc(-c2nn(Cc3ccccc3)c3ccccc23)o1 (centres undefined)
IC50 [1]: > 30 µM

COc1ccc(Cn2nc(-c3ccc(CO)o3)c3ccccc32)cc1
IC50 [1]: 0.97 µM

OCc1ccc(-c2nn(Cc3ccccc3F)c3ccccc23)o1
IC50 [1]: 0.26 µM

OCc1ccc(-c2nn(Cc3ccncc3)c3ccccc23)o1
IC50 [1]: 0.83 µM

OCc1ccc(-c2nn(Cc3ccc(C(F)(F)F)cc3)c3ccccc23)o1
IC50 [1]: 9.4 µM

OCc1ccc(-c2nn(Cc3ccc(Cl)cc3)c3ccccc23)o1
IC50 [1]: 2.8 µM

OCc1ccc(-c2nn(Cc3c(F)c(F)c(F)c(F)c3F)c3ccccc23)o1
IC50 [1]: 0.18 µM

C#CCOCc1ccc(-c2nn(Cc3ccccc3)c3ccccc23)o1
IC50 [1]: 7 µM

OCc1ccc(-c2nn(Cc3ccccc3Cl)c3ccccc23)o1
IC50 [1]: 0.65 µM

[N-]=[N+]=NCc1ccc(Cn2nc(-c3ccc(CO)o3)c3ccccc32)cc1
IC50 [1]: 0.7 µM

OCc1ccc(-c2nn(Cc3ccccn3)c3ccccc23)o1
IC50 [1]: 0.3 µM

OCc1ccc(-c2nn(Cc3ccccc3C(F)(F)F)c3ccccc23)o1
IC50 [1]: 13.9 µM
